US10253049B2, “Boronic acid derivatives” (MERCK PATENT GMBH, priority 2014, dated 2019)

Assays:
[1] = biological target: LMP7 (purified human immunoproteasome) (Homo sapiens, UniProt P28062); test: Determination of LMP7 activity (fluorescence intensity assay, Suc-LLVY-AMC); format: biochemical
Procedure: Determination of LMP7 Activity
Measurement of LMP7 inhibition is performed in 384 well format based on fluorescence intensity assay.
(§1) Purified human immunoproteasome (0.25 nM) and serial diluted compounds in DMSO (range of concentrations from 30 μM to 15 pM) or controls are incubated for 20 minutes or 120 minutes (long incubation) at 25° C. in assay buffer containing 50 mM Tris pH 7.4, 0.03% SDS, 1 mM EDTA and 1% DMSO. The reaction is initiated by the addition of the fluorogenic peptide substrate, Suc-LLVY-AMC (Bachem I-1395), at a concentration of 40 μM. After 60 minutes of incubation at 37° C., fluorescence intensity is measured at λex=350 nm and λem=450 nm with a fluorescence reader (Perkin Elmer Envision reader or equivalent).
(§2) Unless indicated otherwise the results are obtained after incubation for 20 minutes.

[2] = biological target: Beta5 (purified human constitutive proteasome) (Homo sapiens, UniProt P28074); test: Determination of Beta5 activity (fluorescence intensity assay, Suc-LLVY-AMC); format: biochemical
Procedure: Determination of Beta5 Activity
Measurement of Beta5 inhibition is performed in 384 well format based on fluorescence intensity assay.
as §1, with “constitutive proteasome (1.25” for “immunoproteasome (0.25”
as §2

[3] = biological target: LMP7 subunit of the immunoproteasome (Homo sapiens, UniProt P28062); settings: Singh et al., Br. J. Hematology 152(2): 155-163; cited from earlier work

| IC50 ([1]; incubation for 20 minutes) | IC50 ([2]; incubation for 20 minutes) | Selectivity LMP7 vs Beta5 ([2]; incubation for 20 minutes) | IC50 ([1]; long incubation (120 min)) | IC50 ([2]; long incubation (120 min)) | Selectivity LMP7 vs Beta5 ([2]; long incubation (120 min)) | Compound | selectivity for the LMP7 subunit of the immunoproteasome [3] |
| --- | --- | --- | --- | --- | --- | --- | --- |
| 500 to 5000 nM | > 5000 nM | +++ (+++: 30 ≤ Selectivity < 50) |  |  |  | CCC(=O)N(CC(=O)N[C@@H](Cc1ccsc1)B(O)O)c1ccccc1F [Compound No. 39, [(1R)-1-[[2-(2-fluoro-N-propanoyl-anilino)acetyl]amino]-2-(3-thienyl)ethyl]boronic acid] |  |
|  |  |  | 500 to 5000 nM | > 5000 nM |  | CN(CC(=O)N[C@@H](Cc1ccsc1)B(O)O)C(=O)c1ccccc1C(F)(F)F [Compound No. 40, [(1R)-1-[[2-[methyl-[2-(trifluoromethyl)benzoyl]amino]acetyl]amino]-2-(3-thienyl)ethyl]boronic acid] |  |
|  |  |  | < 50 nM | 500 to 5000 nM | +++++ (+++++: Selectivity ≥ 70) | Cc1ccc(S(=O)(=O)N(CC(=O)N[C@@H](C[C@@H]2COc3ccccc32)B(O)O)C(C)C)cc1 [Compound No. 41, [(1R)-2-[(3S)-2,3-dihydrobenzofuran-3-yl]-1-[[2-[isopropyl(p-tolylsulfonyl)amino]acetyl]amino]ethyl]boronic acid] |  |
|  |  |  | < 50 nM | 50 to 500 nM | +++++ (+++++: Selectivity ≥ 70) | CCN(CCC(=O)N[C@@H](C[C@@H]1COc2ccccc21)B(O)O)C(=O)c1ccc(Cl)cc1 [Compound No. 42, [(1R)-1-[3-[(4-chlorobenzoyl)-ethyl-amino]propanoylamino]-2-[(3S)-2,3-dihydrobenzofuran-3-yl]ethyl]boronic acid] |  |
|  |  |  | 50 to 500 nM | > 5000 nM | +++++ (+++++: Selectivity ≥ 70) | CCN(CC(=O)N[C@@H](Cc1coc2c(C)cccc12)B(O)O)S(=O)(=O)c1ccc(C)cc1 [Compound No. 43, [(1R)-1-[[2-[ethyl(p-tolylsulfonyl)amino]acetyl]amino]-2-(7-methylbenzofuran-3-yl)ethyl]boronic acid] |  |
|  |  |  |  |  |  | CC1=C(C(=O)N[C@H](C)C(=O)N[C@@H](Cc2c[nH]c3ccccc23)C(=O)N[C@@H](Cc2ccccc2)C(=O)[C@@]2(C)CO2)Cc2ccccc21 [PR-924] | 100 fold |
